According to patent US9907307B2, “Aromatic compound and uses thereof” (SUMITOMO CHEMICAL COMPANY, LIMITED, priority 2014, dated 2018):

Tested on: wheat septoria tritici blotch fungus (Mycosphaerella graminicola)
Assay: Control test against wheat septoria tritici blotch fungus, titer plate growth (Test Example 1)
Format: cell-based
Details: 150 ppm in DMSO, 1 μl in 150 μl medium, 96-well plate, 18° C., 4 days

Compound: CCOC(=O)C(=O)c1ccccc1COc1ccc(-c2cc(Cl)n(C)n2)cc1C [present compound 1]
- control activity (Equation 1, degree of growth by absorbance at 550 nm): ≥ 70%
